# Measurements reported in ChEMBL document CHEMBL1123199, “Synthesis and structure-activity relationships of naftifine-related allylamine antimycotics” (1986).
# Tests used:
# [1] = system: Aspergillus fumigatus; assay: Antifungal activity measured against Aspergillus fumigatus; format: functional
# [2] = system: Candida parapsilosis; assay: Antifungal activity against Candida parapsilosis.; format: functional; settings: Lodderomyces parapsilosis
# [3] = system: Epidermophyton floccosum; assay: Antifungal activity against Epidermophyton floccosum.; format: functional
# [4] = system: Microsporum canis; assay: Antifungal activity against Microsporum canis; format: functional
# [5] = system: Sporothrix schenckii; assay: Antifungal activity measured against Sporothrix schenck ii.; format: functional
# [6] = Antifungal activity against Trichophyton mentagrophytes.; format: functional, Arthroderma benhamiae; settings: Trichophyton benhamiae
# [7] = system: Cavia porcellus; assay: In vivo antifungal activity by topical treatment of guinea pig dermatophytosis caused by Trichophyton mentagrophytes at a dose of 0.1%; format: functional
# [8] = system: Cavia porcellus; assay: In vivo antifungal activity by topical treatment of guinea pig dermatophytosis caused by Trichophyton mentagrophytes at a dose of 0.5%; format: functional
# [9] = system: Cavia porcellus; assay: In vivo antifungal activity by topical treatment of guinea pig dermatophytosis caused by Trichophyton mentagrophytes at a dose of 2%; format: functional
# [10] = system: Trichophyton benhamiae; assay: Antifungal activity measured against Trichophyton mentagrophytes; format: functional, Arthroderma benhamiae
Compound,MIC [1] [µg/mL],MIC [2] [µg/mL],MIC [3] [µg/mL],MIC [4] [µg/mL],MIC [5] [µg/mL],MIC [6] [µg/mL],Activity [7] [%],Activity [8] [%],Activity [9] [%],MIC [10] [µg/mL]
COc1ccc2c(CN(C)C/C=C/c3ccccc3)cccc2c1,> 100,> 100,12.5,12.5,25,1.6,–,–,–,–
CN(C/C=C/c1ccccc1)Cc1ccnc2ccccc12,> 100,2.5,1.6,1.6,12.5,–,0,0,3,1.6
CN(C/C=C/c1ccccc1)C(=O)c1cccc2ccccc12,12.5,> 100,≤ 1.6,≤ 1.6,25,–,0,0,60,≤ 1.6
CN(C/C=C/C1=CCCCC1)Cc1cccc2ccccc12,12.5,0.8,0.1,0.1,0.8,–,41,97,100,0.05
CN(C/C=C/c1ccccc1)Cc1cccc2sccc12,12.5,1.6,0.1,0.1,1.6,–,–,75,100,0.1
CN(C/C=C/c1ccccc1)CC1=CCOc2ccccc21,50,6.2,0.4,0.4,6.2,–,–,–,82,0.2
CC(c1cccc2ccccc12)N(C)C/C=C/c1ccccc1 (centres undefined),50,3.1,0.2,0.4,3.1,–,15,75,100,0.1
CN(C/C=C/c1ccc(Cl)cc1)Cc1cccc2ccccc12,> 100,100,0.4,0.4,3.1,–,0,25,44,0.2
CN(C/C=C/C1=CCCC1)Cc1cccc2ccccc12,50,6.2,0.2,0.2,3.1,–,30,91,100,0.1
CN(C/C=C/C1=CCCCCC1)Cc1cccc2ccccc12,25,1.6,0.1,0.05,0.8,–,29,85,100,0.05
CCN(C/C=C/c1ccccc1)Cc1cccc2ccccc12,100,12.5,< 1.6,< 1.6,12.5,–,19,25,81,< 1.6
CN(C/C=C/c1cccs1)Cc1cccc2ccccc12,100,6.2,0.2,0.2,3.1,–,13,56,96,0.1
CN(C/C=C\c1ccccc1)Cc1cccc2ccccc12,25,3.1,0.2,0.2,3.1,–,34,47,100,0.1
Cc1ccc(/C=C/CN(C)Cc2cccc3ccccc23)cc1,> 100,50,< 1.6,< 1.6,12.5,–,7,22,50,< 1.6
CN(C/C=C/c1ccccc1)Cc1csc2ccccc12,25,3.1,0.2,0.2,1.6,–,0,54,97,0.1
CN(C/C=C/c1ccsc1)Cc1cccc2ccccc12,50,6.2,0.1,0.2,3.1,–,7,47,100,0.1
CN(C/C=C/c1ccccn1)Cc1cccc2ccccc12,> 100,> 100,12.5,12.5,100,–,0,0,7,< 1.6
CN(C/C=C/c1ccccc1)Cc1c2ccccc2cc2ccccc12,100,100,0.4,0.8,50,–,0,0,38,0.8
CCOC(=O)/C=C/CN(C)Cc1cccc2ccccc12,> 100,> 100,3.1,6.25,12.5,–,0,0,16,< 1.6
CCCCCOC(=O)/C=C/CN(C)Cc1cccc2ccccc12,50,25,< 1.6,< 1.6,< 1.6,–,0,0,10,< 1.6
CN(C/C=C/c1ccccc1)Cc1cccc2c1CCCC2,> 100,50,0.8,0.8,3.1,–,0,22,50,0.4
CN(C/C=C/c1ccc(F)cc1)Cc1cccc2ccccc12,25,3.1,0.1,0.2,1.6,–,21,82,100,0.1
CN(C/C=C/c1ccccc1)Cc1cn(C)c2ccccc12,> 100,25,≤ 1.6,≤ 1.6,≤ 1.6,–,0,0,88,≤ 1.6
CN(C/C=C/c1ccncc1)Cc1cccc2ccccc12,> 100,> 100,25,25,100,–,–,–,–,< 1.6
CC(C)N(C/C=C/c1ccccc1)Cc1cccc2ccccc12,> 100,100,< 1.6,3.1,50,–,–,–,–,< 1.6
CN(C/C=C/C1CCCCC1)Cc1cccc2ccccc12,> 100,> 100,12.5,12.5,> 100,–,–,–,–,1.6
